Laboratory results published in patent US12568972B2, “Pyridazinol compounds and derivatives, preparation methods, herbicidal compositions and applications thereof” (Qingdao Kingagroot Chemical Compound Co., Ltd., priority 2018, dated 2026).

Legend:
Test in all cases: Post-emergence test, weed control effect
Format in all cases: in vivo
Veronica polita = conditions: after 3 weeks; for weed control effect, Veronica polita (activity level): Dose 3000 g/ha; for weed control effect (activity level), Veronica polita: dose 2000 g/ha
In short: (§1)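 Weeds grown from seed in soil-filled pots in a greenhouse were sprayed at the 2-3 leaf stage, 2-3 weeks after sowing, with compound in acetone/Tween-80/water plus 80% vegetable oil methyl ester synergist at 1500 g/ha. Fresh-weight inhibition was scored on a 0-10 scale after 3 weeks.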

Amaranthus retroflexus = conditions: after 3 weeks; for weed control effect, Amaranthus retroflexus (activity level): Dose 3000 g/ha; for weed control effect (activity level), Amaranthus retroflexus: dose 2000 g/ha
In short: as §1

Chenopodiaceae = conditions: after 3 weeks; for weed control effect, Chenopodiaceae (activity level): Dose 3000 g/ha; for weed control effect (activity level), Chenopodiaceae: dose 2000 g/ha
In short: as §1

Rorippa indica = conditions: after 3 weeks; for weed control effect, Rorippa indica (activity level): Dose 3000 g/ha; for weed control effect (activity level), Rorippa indica: dose 2000 g/ha
In short: as §1

| Compound | weed control effect, Veronica polita (activity level) (Veronica polita) | weed control effect, Amaranthus retroflexus (activity level) (Amaranthus retroflexus) | weed control effect, Chenopodiaceae (activity level) (Chenopodiaceae) | weed control effect, Rorippa indica (activity level) (Rorippa indica) | weed control effect (activity level), Veronica polita (Veronica polita) | weed control effect (activity level), Amaranthus retroflexus (Amaranthus retroflexus) | weed control effect (activity level), Chenopodiaceae (Chenopodiaceae) | weed control effect (activity level), Rorippa indica (Rorippa indica) |
| --- | --- | --- | --- | --- | --- | --- | --- | --- |
| CCCCCCOC(=S)Oc1cc(C(F)(F)F)nnc1-c1ccc(Cl)c(Cl)c1Cl [Compound 1-160] | 10 | 10 | 10 | 10 | – | – | – | – |
| CCN(CC)C(=S)Oc1cc(C(F)(F)F)nnc1-c1ccc(F)cc1 [Compound 1-162] | 10 | 10 | 10 | 10 | – | – | – | – |
| CCCCCCCCSC(=S)Oc1cc(C(F)(F)F)nnc1-c1ccc(F)c(F)c1 [Compound 1-163] | 10 | 10 | 10 | 10 | – | – | – | – |
| O=C(Oc1cc(C(F)(F)F)nnc1-c1ccc(F)cc1)Sc1ccccc1 [Compound 1-164] | 10 | 10 | 10 | 10 | – | – | – | – |
| CCS(=O)Oc1cc(C(F)(F)F)nnc1-c1ccc(F)c(F)c1 (centres unmarked) [Compound 1-165] | 10 | 10 | 10 | 10 | – | – | – | – |
| O=S(Oc1cc(C(F)(F)F)nnc1-c1ccc(F)cc1)C(F)(F)F (centres unmarked) [Compound 1-166] | 10 | 10 | 10 | 10 | – | – | – | – |
| COP(=O)(OC)Oc1cc(C(F)(F)F)nnc1-c1ccc(F)c(Cl)c1 [Compound 1-167] | 10 | 10 | 10 | 10 | – | – | – | – |
| CC(C)=NOc1cc(C(F)(F)F)nnc1-c1ccc(F)c(F)c1 [Compound 1-169] | 10 | 10 | 10 | 10 | – | – | – | – |
| CC/C(C)=N\Oc1cc(C(F)(F)F)nnc1-c1ccc(C)cc1 [Compound 1-170] | 10 | 10 | 10 | 10 | – | – | – | – |
| CCC/C(C)=N\Oc1cc(C(F)(F)F)nnc1-c1ccc(OC)cc1 [Compound 1-171] | 10 | 10 | 10 | 10 | – | – | – | – |
| CCC/C=N\Oc1cc(C(F)(F)F)nnc1-c1ccc(F)cc1 [Compound 1-172] | 10 | 10 | 10 | 10 | – | – | – | – |
| C/C(CC(C)C)=N/Oc1cc(C(F)(F)F)nnc1-c1cccc(C(F)(F)F)c1 [Compound 1-173] | 10 | 10 | 10 | 10 | – | – | – | – |
| C/C(=N/Oc1cc(C(F)(F)F)nnc1-c1ccc(C)c(C)c1)C(C)(C)C [Compound 1-174] | 10 | 10 | 10 | 10 | – | – | – | – |
| CCCC/C(C)=N\Oc1cc(C(F)(F)F)nnc1-c1ccc(S(C)(=O)=O)cc1 [Compound 1-175] | 10 | 10 | 10 | 10 | – | – | – | – |
| CCCCCC/C(C)=N\Oc1cc(C(F)(F)F)nnc1-c1ccc(Cl)cc1Cl [Compound 1-176] | 10 | 10 | 10 | 10 | – | – | – | – |
| CCCCC(CCCC)=NOc1cc(C(F)(F)F)nnc1-c1cccc([N+](=O)[O-])c1 [Compound 1-178] | 10 | 10 | 10 | 10 | – | – | – | – |
| CC/C(CC(C)CC)=N/Oc1cc(C(F)(F)F)nnc1-c1ccnn1C (centres unmarked) [Compound 1-179] | 10 | 10 | 10 | 10 | – | – | – | – |
| CC(C)CC(CC(C)C)=NOc1cc(C(F)(F)F)nnc1-c1ccc(Cl)cc1 [Compound 1-180] | 10 | 10 | 10 | 10 | – | – | – | – |
| CCCC(C)CC/C(C)=N\Oc1cc(C(F)(F)F)nnc1-c1ccccc1 (centres unmarked) [Compound 1-181] | 10 | 10 | 10 | 10 | – | – | – | – |
| CCOC(=O)CCCOc1cc(C(F)(F)F)nnc1-c1ccc(F)cc1 [Compound 1-207] | 10 | 10 | 10 | 10 | – | – | – | – |
| Fc1ccc(-c2nnc(C(F)(F)F)cc2Oc2ccccc2)cc1F [Compound 1-208] | 10 | 10 | 10 | 10 | – | – | – | – |
| Fc1ccc(-c2nnc(C(F)(F)F)cc2OCc2ccccc2)cc1 [Compound 1-209] | 10 | 10 | 10 | 10 | – | – | – | – |
| Fc1ccc(-c2nnc(C(F)(F)F)cc2OCc2ccccc2)cc1F [Compound 1-210] | 10 | 10 | 10 | 10 | – | – | – | – |
| COc1cc(Cl)c(COc2cc(C(F)(F)F)nnc2-c2ccc(F)cc2)cc1Cl [Compound 1-211] | 10 | 10 | 10 | 10 | – | – | – | – |
| O=C(COc1cc(C(F)(F)F)nnc1-c1ccc(F)cc1)c1ccccc1 [Compound 1-212] | 10 | 10 | 10 | 10 | – | – | – | – |
| O=C(COc1cc(C(F)(F)F)nnc1-c1ccc(F)c(F)c1)c1ccccc1 [Compound 1-213] | 10 | 10 | 10 | 10 | – | – | – | – |
| CC(C)OC(=O)OC(C)Oc1cc(C(F)(F)F)nnc1-c1ccccc1 (centres unmarked) [Compound 1-240] | 10 | 10 | 10 | 10 | – | – | – | – |
| Cc1ccc(-c2nnc(C(F)(F)F)cc2O)cc1 [Compound 4] | – | – | – | – | 10 | 10 | 8 (Level 8: above 80% growth inhibition rate) | 10 |
| CC(C)c1ccc(-c2nnc(C(F)(F)F)cc2O)cc1 [Compound 8] | – | – | – | – | 10 | 10 | 8 (Level 8: above 80% growth inhibition rate) | 10 |
